Measured values taken from US10124035B2, “DISC-1 pathway activators in the control of neurogenesis” (Massachusetts Institute of Technology, priority 2008, dated 2018).
“Also recorded” adds a separate entry of the source.

How the values were obtained:
[1] = tested on: AHPs; assay: Immunoblot of β-catenin and cyclin D1 in transduced AHPs; assay type: cell-based
Text: (§1) • Mice. Swiss Webster pregnant female mice were purchased from Taconic (Hudson, N.Y.). • Cell Culture. AHPs were kindly provided by Dr. Gage (Lie, D. C. et al. Wnt signaling to regulates adult hippocampal neurogenesis. Nature 437, 1370-5 (2005)) and cultured under conditions described previously (Palmer, T. D., Takahashi, J. & Gage, F. H. The adult rat hippocampus contains primordial neural stem cells. Mol Cell Neurosci 8, 389-404 (1997)). Primary neural progenitors were isolated from E14 mouse embryos and cultured as described previously (Sanada, K. & Tsai, L. H. G protein betagamma subunits and AGS3 control spindle orientation and asymmetric cell fate of cerebral cortical progenitors. Cell 122, 119-31 (2005)). N2a and 293T cells were cultured in DMEM medium containing 10% FBS, L-glutamine, and penicillin/streptomycin. Wnt3a expressing L cells and untransfected L cells were obtained from ATCC (Manassas, Va.). Wnt3a conditional medium was produced according to the ATCC protocol. To induce AHP differentiation, FGF2 was removed from the culture medium and 1 μM retinoic acid/1% FBS was added to the medium for 4 days. • Reagents. Recombinant Wnt3a protein was obtained from Chemicon (Rosemont, Ill.). FGF2 was obtained from PeproTech (Rocky Hill, N.J.). Recombinant GST-GSK3β was obtained from Active Motif (Carlsbad, Calif.). Recombinant GST-β-catenin and GST-axin were obtained from Millipore (Billerica, Mass.). The GSK313 inhibitor, SB-216763, AR-A104418 and His-GSK3β, were obtained from Sigma-Aldrich (Sigma-Aldrich, St. Louis, Mo.). L803-MTS was obtained from Calbiochem (San Diego, Calif.). GST-AKT1 was obtained from Cell Signaling (Beverly, Mass.). GST-CASK-1 (CASK fragment from 316-415aa), GST-CASK-2 (CASK fragment from 777-974aa), and GST-p25 proteins were kindly provided by Dr. B. A. Samuels. Mouse DISC1 peptidel (40-78aa: GYMRSTAGSG IGFLSPAVGMPHPSSAG LTGQQSQHSQS; SEQ ID NO: 1) and Mouse DISC1 peptide 2 (195-238aa, […] GERGEAEGCLPSREAE; SEQ ID NO: 2) were synthesized by Chi Scientific (Maynard, Mass.). • Antibodies. […]

[2] = tested on: neural progenitors in embryonic mouse brains; assay: In utero electroporation of shRNA into E13 embryonic mouse brains; assay type: in vivo
Text: as §1, with “Antibodies. The primary antibodies used in this study were the following: rabbit anti-DISC1 C-terminal antibody, mouse and rabbit anti-GFP antibodies (Invitrogen, Carlsbad, Calif.); affinity purified rabbit anti-DISC1 antibody (Novus, Littleton, Colo.) for immunohistochemistry; mouse anti-FLAG and mouse anti-Actin antibody; mouse anti-GSK3β antibody, mouse anti-β-catenin antibody, mouse anti-pY216 GSK3β antibody, and mouse anti-nestin antibody (BD Biosciences, San Diego, Calif.); rabbit anti-[…] β-catenin antibody, rabbit anti-pS9 GSK3β antibody, and mouse anti-cyclin to D1 antibody (Cell Signaling); mouse anti-Dv12 antibody, mouse anti-HA antibody, mouse anti-GST antibody, mouse anti-ubiquitin antibody, and rabbit anti-β-catenin antibody (Santa Cruz, Santa Cruz, Calif.); mouse Tuj-1 antibody (BABCO, Harrisburg, Pa.); mouse anti-BrdU antibody (DakoCytomation, Glostrup, Denmark); guinea pig anti-doublecortin antibody (Chemicon, Rosemont, Ill.); chicken anti-GFP antibody (Ayes Labs, Tigard, Oreg.); rabbit anti-pS10 Histone H3 antibody (Upstate, Lake Placid, N.Y.). • Constructs. The sequences for shRNAs targeting DISC1 are as follows: control shRNA: 5′-CGGCTGAAACAAGAGTTGG-3′ (SEQ ID NO:3); DISC1 shRNA-1: 5′-GGCAAACACTGTGA AGT GC-3′ (SEQ ID NO:4); DISC1 shRNA-2: 5′-[…]-3′ (SEQ ID NO:5)(Kamiya A. et al. A schizophrenia-associated mutation of DISC1 perturbs cerebral cortex development. Nat. Cell Biol 7, 1167-78 (2005)). DISC1 shRNA-1 recognizes both rat and mouse DISC1.” for “Antibodies.”

[3] = tested on: DISC1 shRNA infected mice; assay: Elevated plus-maze; assay type: in vivo, mouse; conditions: lentivirus in adult dentate gyrus
Experimental: Alterations in neurogenesis are implicated in the development of depression and other abnormal behaviors. To examine the behavioral consequences of disrupting the DICS1/GSK3β pathway, we silenced DISC1 expression in the adult dentate gyms and evaluated behavioral consequences. Four weeks after the injection of control or DISC1 shRNA-1 lentivirus, mice were treated with vehicle or SB-216763 (2 mg/kg i.p.) every other day for 10 days. […] DISC1 shRNA injected mice traveled a greater distance and spent more time moving in a novel open field than control mice (FIG. 17A). These behaviors were normalized by SB-216763 treatment. We further tested whether DISC1 loss-of-function had consequences on depression-like behavior in the forced swim test. […] Importantly, swimming velocity was unchanged. […] Thus, increased GSK3β activity caused by DISC1 loss-of-function is associated with schizophrenia- and depression-like behaviors.

[4] = tested on: DISC1 knockdown AHP cells; assay: BrdU incorporation in DISC1 knockdown progenitor cells; assay type: cell-based; conditions: SB-216763 5 μM for 16 hours, 10 μM BrdU for 2 hours
Experimental: Primary neural stem cells from E14 brains were infected with control or DISC1 shRNA lentiviruses. 48 hours after to transduction, cells were treated with vehicle or SB-216763 (5 μM) for 16 hours and then pulsed with 10 μM BrdU for 2 hours. Shown is percentage of GFP and BrdU double positive cells to total GFP positive cells (n=3, p<0.05). b. […] 1.5 μg of vector or WT-DISC1 was cotransfected with 0.5 μg control or DISC1 shRNA-2, 0.1 μg TCF reporter, and 10 ng pRL-TK vector into 293T cells. 48 hours after transfection, Wnt3a conditional medium with vehicle, SB-216763, or AR-A104418 was added for another 16 hours.
If DISC1 functions to inhibit GSK3β activity, the negative effects of DISC1 silencing on proliferation should be alleviated by GSK3β loss-of-function. We examined the consequence of treating DISC1 knockdown AHP cells with SB-216763, a specific chemical inhibitor of GSK3β. […] These experiments further support a role of DISC1 in controlling cell proliferation via modulation of GSK3β.

[5] = electroporated at E13, analyzed 3 days later

Row | Compound | reduction of Cyclin D1 levels [1] [%] | β-catenin levels [1] | BrdU labeling ([2]; BrdU 2 hours prior to collection) [%] | cell cycle exit index ([2]; electroporated E13, BrdU at E15, collected E16) [%] | GFP+Dcx+ cells ([2]; electroporated E13, sacrificed E16, SVZ) [%] | GFP positive cells in the VZ/SVZ [2, 5] [%] | GFP positive cells in the cortical plate [2, 5] [%] | mitotic index ([2]; pH3, electroporated E13, sacrificed E15) [%] | anxiety in elevated plus-maze [3] | cell proliferation by BrdU incorporation in DISC1 knockdown cells [4]
1 | DISC1 shRNA-1: shRNA targeting rat and mouse DISC1, SEQ ID NO:4, in pLentiLox 3.7 vector (GGCAAACACTGTGAAGTGC) | 50 | 35 % to control | 18.2±2.2 | 53.2±6.1 | 36.7±4.2 | 13 | 59.6 | 3.8±0.8 | did not display increased anxiety | –
2 | Cn1cc(C2=C(c3ccc(Cl)cc3Cl)C(=O)NC2=O)c2ccccc21 [SB-216763] | – | – | – | – | – | – | – | – | – | restored the cell proliferation impaired by DISC1 knockdown; also recorded: can rescue DISC-1 knockdown-induced proliferation defects
